From patent US20110207784A1, “OXADIAZOLE-2-OXIDES AS ANTISCHISTOSOMAL AGENTS” (THE UNITED STATES OF AMERICA, AS REPRESENTED BY THE …, priority 2008, published 2011)
Where two headings read alike, the source gives them in different places.

Columns and labels:
[1] = molecular target: Recombinant thioredoxin glutathione reductase (TGR) (Schistosoma mansoni, UniProt Q962Y6); experiment: biochemical; format: biochemical, S. mansoni
[2] = tested on: freshly perfused S. mansoni worms; experiment: ex vivo parasite killing assay; format: cell-based

Recombinant thioredoxin glutathione reductase (TGR), sequence (Q962Y6 1-598): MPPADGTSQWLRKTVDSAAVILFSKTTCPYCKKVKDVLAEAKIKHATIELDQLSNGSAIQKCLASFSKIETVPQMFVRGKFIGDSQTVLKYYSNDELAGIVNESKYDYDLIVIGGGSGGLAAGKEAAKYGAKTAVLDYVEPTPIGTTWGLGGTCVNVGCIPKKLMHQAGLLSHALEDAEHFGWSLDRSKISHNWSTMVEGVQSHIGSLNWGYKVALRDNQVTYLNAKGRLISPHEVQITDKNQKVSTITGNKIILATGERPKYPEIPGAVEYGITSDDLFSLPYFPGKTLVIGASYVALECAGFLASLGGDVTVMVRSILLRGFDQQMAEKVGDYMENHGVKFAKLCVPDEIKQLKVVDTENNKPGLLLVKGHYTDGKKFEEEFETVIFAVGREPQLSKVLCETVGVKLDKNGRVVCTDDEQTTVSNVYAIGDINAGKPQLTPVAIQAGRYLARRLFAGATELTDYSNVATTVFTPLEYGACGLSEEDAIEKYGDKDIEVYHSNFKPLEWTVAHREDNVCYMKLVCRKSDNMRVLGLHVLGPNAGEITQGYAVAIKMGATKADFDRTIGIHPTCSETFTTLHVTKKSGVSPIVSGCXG

Row | SMILES | IC50 ([1]; read-out: TGR IC50) | also measured
1 | Cc1ccc(-c2no[n+]([O-])c2C#N)cc1 [Compound 27, 3-cyano-4-p-tolyl-1,2,5-oxadiazole-2-oxide] | 11.2 µM | –
2 | [O-][n+]1onc(-c2ccccc2)c1CO [Compound 51] | 11.2 µM | –
3 | N#Cc1c(-c2ccc(F)c(Br)c2)no[n+]1[O-] [Compound 35, 4-(3-bromo-4-fluorophenyl)-3-cyano-1,2,5-oxadiazole-2-oxide] | 2.8 µM | –
4 | COc1cccc(-c2no[n+]([O-])c2C#N)c1 [Compound 33, 3-cyano-4-(3-methoxyphenyl)-1,2,5-oxadiazole-2-oxide] | 8.9 µM | –
5 | N#Cc1c(-c2cc(F)cc(-c3no[n+]([O-])c3C#N)c2)no[n+]1[O-] [Compound 45, 4,4′-(5-fluoro-1,3-phenylene)bis(3-cyano-1,2,5-oxadiazole-2-oxide)] | 0.48 µM | worms judged to be dead [2]: 100%
6 | N#Cc1c(-c2cccc(Br)c2)no[n+]1[O-] [Compound 31, 4-(3-bromophenyl)-3-cyano-1,2,5-oxadiazole-2-oxide] | 2.8 µM | –
7 | N#Cc1c(-c2ccc(-c3ccccc3)cc2)no[n+]1[O-] [Compound 28, 4-(biphenyl-4-yl)-3-cyano-1,2,5-oxadiazole-2-oxide] | 15.8 µM | –
8 | N#Cc1c(-c2ccc(O)cc2)no[n+]1[O-] [Compound 48, 3-cyano-4-(4-hydroxyphenyl)-1,2,5-oxadiazole-2-oxide] | 17.9 µM | –
9 | N#Cc1c(-c2ccc([N+](=O)[O-])cc2)no[n+]1[O-] [Compound 25, 3-cyano-4-(4-nitrophenyl)-1,2,5-oxadiazole-2-oxide] | – | IC50 [1]: 2.2 µM
10 | N#Cc1c(-c2ccc(C(F)(F)F)cc2)no[n+]1[O-] [Compound 24, 3-cyano-4-(4-(trifluoromethyl)phenyl)-1,2,5-oxadiazole-2-oxide] | 7.1 µM | –
11 | COc1ccc(-c2no[n+]([O-])c2C#N)cc1 [Compound 26, 3-cyano-4-(4-methoxyphenyl)-1,2,5-oxadiazole-2-oxide] | 10 µM | –
12 | N#Cc1c(-c2ccc(Br)cc2)no[n+]1[O-] [Compound 23, 4-(4-bromophenyl)-3-cyano-1,2,5-oxadiazole-2-oxide] | 3.5 µM | –
13 | N#Cc1c(-c2ccc(F)cc2)no[n+]1[O-] [Compound 21, 3-cyano-4-(4-fluorophenyl)-1,2,5-oxadiazole-2-oxide] | 7.9 µM | –
14 | COc1ccccc1-c1no[n+]([O-])c1C#N [Compound 34, 3-cyano-4-(2-methoxyphenyl)-1,2,5-oxadiazole-2-oxide] | 7.9 µM | –
15 | COc1cc(-c2no[n+]([O-])c2C#N)cc(OC)c1OC [Compound 38, 3-cyano-4-(3,4,5-trimethoxyphenyl)-1,2,5-oxadiazole-2-oxide] | 8.9 µM | –
16 | N#Cc1c(-c2cccc(Cl)c2)no[n+]1[O-] [Compound 30, 4-(3-chlorophenyl)-3-cyano-1,2,5-oxadiazole-2-oxide] | 3.5 µM | –
17 | O=Cc1c(-c2ccccc2)no[n+]1[O-] [Compound 52] | 0.11 µM | –
18 | Cc1c(-c2ccccc2)no[n+]1[O-] [Compound 50] | – | TGR inhibition, potency in words [1]: less potent than compounds 52, 51, and 56
19 | N#Cc1c(-c2ccc(Cl)cc2)no[n+]1[O-] [Compound 22, 4-(4-chlorophenyl)-3-cyano-1,2,5-oxadiazole-2-oxide] | 4 µM | –
20 | N#Cc1c(-c2cccc(C(F)(F)F)c2)no[n+]1[O-] [Compound 32, 3-cyano-4-(3-(trifluoromethyl)phenyl)-1,2,5-oxadiazole-2-oxide] | 2.5 µM | –
21 | N#Cc1c(-c2cccc([N+](=O)[O-])c2)no[n+]1[O-] [Compound 55, 3-cyano-4-(3-nitrophenyl)-1,2,5-oxadiazole-2-oxide] | 2.2 µM | –
22 | N#Cc1c(-c2ccccc2)no[n+]1[O-] [Compound 49, reference compound] | 6.3 µM | Approximate ET100 (time for 100% of the worms to die) ([2]; compound at 10 μM, RPMI 1640, 10% FCS, pH 7): 16 to 18 h
23 | N#Cc1c(-c2cccc(-c3no[n+]([O-])c3C#N)c2)no[n+]1[O-] [Compound 43, 4,4′-(1,3-phenylene)bis(3-cyano-1,2,5-oxadiazole-2-oxide)] | 3.5 µM | worms judged to be dead [2]: 100%
24 | N#Cc1c(-c2cccc(O)c2)no[n+]1[O-] [Compound 46, 3-cyano-4-(3-hydroxyphenyl)-1,2,5-oxadiazole-2-oxide] | 7.1 µM | –
